Experimental data taken from PubChem BioAssay AID334 (DTP/NCI, 2004).
“And” between values parts separate entries of the source, which are not always exact repeats. Equal values may be shown once. Inconclusive results and toxic doses are left out.

Test system: CD2F1 mice, intracerebral P388 leukemia, median survival T/C%
Experiment: NCI In Vivo Anticancer Drug Screen. Data for tumor model P388 Leukemia (intracerebral) in CD2F1 (CDF1) mice
Conditions: endpoint: median survival time, higher = longer survival
Protocol: The antitumor activity of compounds was measured in mice bearing transplantable tumors. Survival or tumor size were measured and the results are expressed as the measurement made in the treated group (T) divided by the measurement made in the vehicle treated control group (C). The tumor model used in this assay is P388 Leukemia (intracerebral) in CD2F1 (CDF1) mice

[1] = dose: 100.0 mg/kg/injection, schedule: Q01DX009 (ip), vehicle: saline
[2] = dose: 200.0 mg/kg/injection, schedule: Q01DX009 (ip), vehicle: saline

CC(=O)N(C)c1ccc(Nc2cc(C)[nH]c3ccc4ncnc4c23)cc1
T/C (dose: 10.0 mg/kg/injection, schedule: Q01DX005 (ip), vehicle: saline): 107 % of control
T/C (dose: 20.0 mg/kg/injection, schedule: Q01DX005 (ip), vehicle: saline): 106 % of control
T/C (dose: 40.0 mg/kg/injection, schedule: Q01DX005 (ip), vehicle: saline): 104 % of control

CCCCCCOC(=O)C(N)Cc1ccc(N(CCCl)CCCl)cc1 (stereo not drawn)
T/C (dose: 1.6 mg/kg/injection, schedule: Q03HX008 (ip), vehicle: saline): 105 % of control
T/C (dose: 3.2 mg/kg/injection, schedule: Q03HX008 (ip), vehicle: saline): 115 % of control
T/C (dose: 6.4 mg/kg/injection, schedule: Q03HX008 (ip), vehicle: saline): 110 % of control

Cc1cn(C2CC(O)C(CO)O2)c(=O)[nH]c1=O (stereo not drawn)
T/C (dose: 100.0 mg/kg/injection, schedule: Q01DX009 (ip), vehicle: saline with Tween-80): 98 % of control and 104 % of control
T/C [1]: 93 % of control and 102 % of control
T/C (dose: 200.0 mg/kg/injection, schedule: Q01DX009 (ip), vehicle: saline with Tween-80): 108 % of control and 109 % of control
T/C [2]: 97 % of control and 109 % of control
T/C (dose: 400.0 mg/kg/injection, schedule: Q01DX009 (ip), vehicle: saline with Tween-80): 101 % of control and 109 % of control
T/C (dose: 400.0 mg/kg/injection, schedule: Q01DX009 (ip), vehicle: saline): 94 % of control and 111 % of control
T/C (dose: 800.0 mg/kg/injection, schedule: Q01DX009 (ip), vehicle: saline with Tween-80): 114 % of control and 111 % of control
T/C (dose: 800.0 mg/kg/injection, schedule: Q01DX009 (ip), vehicle: saline): 104 % of control and 105 % of control
T/C (dose: 1600.0 mg/kg/injection, schedule: Q01DX009 (ip), vehicle: saline with Tween-80): 93 % of control and 101 % of control

CC1(C)N=C(N)N=C(N)N1c1ccc(OCC(=O)Nc2ccc(S(=O)(=O)F)cc2)c(Cl)c1
T/C (dose: 50.0 mg/kg/injection, schedule: Q04DX003 (ip), vehicle: saline): 111 % of control
T/C (dose: 100.0 mg/kg/injection, schedule: Q04DX003 (ip), vehicle: saline): 100 % of control
T/C (dose: 200.0 mg/kg/injection, schedule: Q04DX003 (ip), vehicle: saline): 111 % of control

F
T/C (dose: 16.0 mg/kg/injection, schedule: Q01DX005 (ip), vehicle: saline): 97 % of control and 101 % of control
T/C (dose: 32.0 mg/kg/injection, schedule: Q01DX005 (ip), vehicle: saline): 98 % of control and 99 % of control

COc1cc2c(c3c1c(=O)c1ccccc1n3C)C=CC(C)(C)O2
T/C (dose: 128.0 mg/kg/injection, schedule: Q01DX005 (ip), vehicle: Klucel (hydroxypropylcellulose) (HPC)): 107 % of control
T/C (dose: 256.0 mg/kg/injection, schedule: Q01DX005 (ip), vehicle: Klucel (hydroxypropylcellulose) (HPC)): 112 % of control
T/C (dose: 512.0 mg/kg/injection, schedule: Q01DX005 (ip), vehicle: Klucel (hydroxypropylcellulose) (HPC)): 113 % of control

CC1(C)N=C(N)N=C(N)N1c1ccc(CCCCc2ccc(Cl)c(S(=O)(=O)F)c2)c(Cl)c1
T/C (dose: 8.0 mg/kg/injection, schedule: Q01DX009 (ip), vehicle: saline): 105 % of control
T/C (dose: 12.0 mg/kg/injection, schedule: Q01DX009 (ip), vehicle: saline): 122 % of control
T/C (dose: 18.0 mg/kg/injection, schedule: Q01DX009 (ip), vehicle: saline): 116 % of control
T/C (dose: 27.0 mg/kg/injection, schedule: Q01DX009 (ip), vehicle: saline): 88 % of control

Nc1ncn(C2OC(CO)C(O)C2O)c(=O)n1 (stereo not drawn)
T/C (dose: 12.5 mg/kg/injection, schedule: Q01DX009 (ip), vehicle: saline): 219 % of control
T/C (dose: 25.0 mg/kg/injection, schedule: Q01DX009 (ip), vehicle: saline): 230 % of control
T/C (dose: 50.0 mg/kg/injection, schedule: Q01DX009 (ip), vehicle: saline): 290 % of control
T/C [1]: 303 % of control
T/C [2]: 303 % of control

O=P1(N(CCCl)CCCl)NCCCO1 (stereo not drawn)
T/C (dose: 265.0 mg/kg/injection, schedule: Q01DX001 (ip), vehicle: saline): 163 % of control
